Assay results from patent US20070243217A1, “Film-Shaped Medicament for Oral Administration Containing Estriol” (HF Arzneimittelforschung GmbH, priority 2004, published 2007).

Assays:
[1] = Estriol levels in the blood over time with the same treatment and dose; type: in vivo; conditions: vaginal application
Protocol: Thus, even in the case of long-term use, there should be no unwanted absorption conditions at the oral mucosa as the application site that show a change for the worse, provided that the treatment of the climacteric complaints is carried out using a film-shaped medicament according to the invention.

[2] = Changes of the oral mucosa on buccal or sublingual administration of estriol; type: in vivo

estriol levels in the blood after some time [1]: drop measurably after some time
Structure (SMILES): C[C@]12CC[C@@H]3c4ccc(O)cc4CC[C@H]3[C@@H]1C[C@@H](O)[C@@H]2O [estriol, (16α, 17β)-estra-1,3,5(10)-triene-3,16,17-triol]
changes of the oral mucosa analogous to proliferation and hornification of the upper cell layers in the vagina [2]: no changes of the oral mucosa
